The IC50 is the point on the concentration scale where inhibition reaches its midpoint.

The target of one assay is T1, human αvβ3-integrin (Homo sapiens, UniProt P05106+P06756).
T1 construct: purchased R&D 3050-AV-050
Kind of assay: ELISA-type solid-phase binding assay: soluble αvβ3 competing for immobilized vitronectin. As to conditions: competitive ELISA-type assay, referenced to internal standard cilengitide (L2). Background: In an ELISA, binding on a coated surface is turned into a signal by an enzyme label.

Another assay deals with T2, human α5β1-integrin (Homo sapiens, UniProt P05556+P08648).
T2 construct: purchased R&D 3230-A5-050
Kind of assay: ELISA-type solid-phase binding assay: soluble α5β1 competing for immobilized fibronectin. As to conditions: competitive ELISA-type assay, referenced to internal standard cilengitide (L2). As to the method: Prior to the biological evaluation of the ligands, their specificity and subtype-selective affinity was analyzed by an ELISA (enzyme-linked immune sorbent assay)-type solid-phase ligand binding assay[59] by measuring the competitive binding of soluble purified integrins in the presence of the respective ligands to plate-immobilized purified ECM proteins, as described in Experimental Section: vitronectin (for αvβ3-directed ligands), fibronectin (for α5β1-directed ligands), or the latency-associated peptide (LAP) of transforming growth factor-β (TGF-β) (for αvβ6-directed ligands). Then, we determined whether Cy5.5 conjugation of ligands led to altered ligand binding affinities and integrin subtype selectivity compared to the unlabeled compounds. In the following, we describe in detail the alterations detected.
(3) 2.0 μg/mL mouse-anti-human CD51/61 (BD Biosciences, Franklin Lakes, New Jersey, USA; #555504). (4) 2.0 μg/mL anti-mouse IgG-POD (Sigma-Aldrich, #A9044-2ML). Integrin αvβ6: (1) 0.4 μg/mL LAP (TGF-β) (R&D, #246-LP-025), (2) 0.5 μg/mL human αvβ6 (R&D, #3817-AV-050), (3) 1:500 dilution mouse-anti-human αv (MAB1978) (Merck Millipore, #MAB1978), (4) 2.0 μg/mL anti-mouse IgG-POD (Sigma-Aldrich, #A9044-2ML). Integrin α5β1: (1) 0.5 μg/mL human fibronectin (Sigma-Aldrich, #F0895-1MG), (2) 2.0 μg/mL human α5β1 (R&D, 3230-A5-050), (3) 1.0 μg/mL mouse-anti-human CD49e (BD Biosciences, #555651), (4) 2.0 μg/mL anti-mouse IgG-POD (Sigma-Aldrich, #A9044-2 ML). For Western blot analysis, the following antibodies were used: (p-)p44/42^(erk-1/2) (1) 1:300 dilution of rabbit-anti-human p44/42^(erk-1/2) antibody (Cell Signaling Technology, Frankfurt, Germany, #9102) in 3% (w/v) bovine serum albumin (BSA)/TBS-T, (2) 1:5,000 dilution goat-anti-rabbit horseradish-conjugated secondary antibody in 1% (w/v) BSA/TBS-T. Phospho-p44/42^(erk-1/2): (1) 1:200 dilution rabbit-anti-human p44/42^(erk-1/2) (Thr202/Tyr204) antibody (Cell Signaling Technology, #9101) in 3% (w/v) BSA/TBS-T, (2) 1:5,000 dilution goat-anti-rabbit horseradish-conjugated secondary antibody in 1% (w/v) BSA/TBS-T. FAK: (1) 1:300 dilution mouse-anti-human FAK antibody (Cell Signaling Technology, #9102) in 3% (w/v) BSA/TBS-T, (2) 1:5,000 dilution goat-anti-mouse horseradish-conjugated secondary antibody in 1% (w/v) BSA/TBS-T. Phospho-FAK: (1) 1:300 dilution mouse-anti-human p-FAK antibody (Cell Signaling Technology) in 3% (w/v) BSA/TBS-T, (2) 1:5,000 dilution goat-antimouse horseradish-conjugated secondary antibody in 1% (w/v) BSA/TBS-T. Differences in blotting efficiency and protein loading were normalized by using a primary antibody against glyceraldehyde-3-phosphate dehydrogenase (GAPDH, 1:10,000 dilution in 1% (w/v) BSA/TBS-T, at RT for 45 min (Millipore, Schwalbach, Germany) and a secondary horseradish-conjugated goat-anti-mouse antibody (1:10,000 dilution in 1% (w/v) BSA/TBS-T, 40 min at RT).
The integrin binding assay was done to assess the specificity and subtype-selective affinity of L1–L5 and their respective Cy5.5-conjugated ligands by using isolated and purified integrins in cell-free ligand binding assays, as previously published.[59]Table 2 summarizes the used ECM ligands, integrins, and antibodies. In brief, flat-bottom 96-well plates were coated overnight at 4 °C with the natural ECM integrin ligands, vitronectin (for αvβ3-directed ligands), fibronectin (for α5β1-directed ligands), or LAP of TGF-β1 (for αvβ6-directed ligands) (100 μL/well in buffer containing 15 mM Na2CO3, 35 mM NaHCO3, pH 9.6). Subsequently, each well was washed in PBS, 0.01% (v/v) Tween 20, 137 mM NaCl, 2.7 mM KCl, 10 mM Na2HPO4, 2 mM KH2PO4, pH 7.4 (PBS-T), and blocked for unspecific binding events for 1 h at RT in 20 mM Tris–HCl, pH 7.5, 150 mM NaCl, 1 mM CaCl2, 1 mM MgCl2, 1 mM MnCl2, and 1% (w/v) BSA. Meanwhile, dilution series of the different integrin ligands and the internal standards were prepared, ranging from 20 μM to 256 pM in 1:5 dilution steps. […]

The target of the next assay is T3, human αvβ6-integrin (Homo sapiens, UniProt P06756+P18564).
T3 construct: purchased R&D 3817-AV-050
As to the kind of experiment: ELISA-type solid-phase binding assay: soluble αvβ6 competing for immobilized LAP (TGF-β). As to conditions: competitive ELISA-type assay, referenced to internal standard RTDLDSLRT

Assay [1] has as its system M21 (αvβ3+), HN (αvβ6+), RKO (α5β1+) cells. As to the kind of experiment: Time-dependent cellular uptake of Cy5.5-labeled ligands in cells overexpressing the targeted integrin. Type of assay: cell-based. As to conditions: state within 30 min, Cy5.5-conjugated ligands, target integrin-expressing cells. The text has this: For intracellular drug delivery, integrin ligands designed as drug-conjugated vehicles have to be easily and selectively internalized by tumor cells (over)expressing the respective targeted integrin subtype. […] It should be noted here that HN, OV-MZ-6, and RKO cells also express low αvβ3 expression levels.
Figure 7 Cellular uptake of Cy5.5-labeled integrin ligands. […] Nuclei were costained with Hoechst 33342 (blue signal) and cell membranes with CellMask Green (green signal). Merge of stains (yellow signal) indicated colocalization of ligands at the cell membrane. Scale bar: 50 μm.
Microchamber cell culture slides were coated with fibronectin (2 μg/mL), followed by cell seeding at a density of 50,000 cells/well. After 24 h of cultivation, cells were treated with integrin ligands L1-Cy5.5 to L5-Cy5.5 (1 μM in 0.01% (w/v) CaCl2 and 0.1% (w/v) BSA in PBS; 250 μL/well) for 3, 30, 60, or 300 min at 37 °C. The cells were washed in PBS/0.01% (w/v) CaCl2 (6 × 800 μL) and the fluorescence signal intensity recorded using the LSM 700 microscope (Zeiss, Jena, Germany). CellMask Green Plasma Membrane Stain was used to stain the cell membrane; nuclei were stained with Hoechst 33342.

Values joined by “and” are separate entries in the source; they are usually repeats but may differ in a detail not shown here. Equal entries are not always repeated.

Turning to `C#CCCC(=O)NCCCOc1ccc(C(=O)N[C@H](CC(=O)O)Cc2ccc(OCCCNc3cc(OC)ccn3)cc2)cc1` [L1, (S)-4-(4-(3-((4-Methoxypyridin-2-yl)amino)propoxy)phenyl)-3-(4-(3-(pent-4-ynamido)propoxy)benzamido)butanoic Acid], the IC50 on human αvβ3-integrin was 1.1 ± 0.27 nM; at human α5β1-integrin it was 73.4 ± 16.6 nM; at human αvβ6-integrin it was 152 ± 60.8 nM. In assay [1], the “Endocytosis of Cy5.5-conjugated ligand” value is given as “started within 30 min”.

With `C#CCCC(=O)NCCCOc1cc(C)c(C(=O)N[C@@H](CNC(=O)CNC(=O)c2cccc(NC(=N)N)c2)C(=O)O)c(C)c1` [L5, (S)-2-(2,6-Dimethyl-4-(3-(pent-4-ynamido)propoxy)benzamido)-3-(2-(3-guanidinobenzamido)acetamido)propanoic Acid], the IC50 at human αvβ3-integrin is more than 1000 nM; on human α5β1-integrin, 1.2 nM and 1.24 nM; at human αvβ6-integrin it was more than 1000 nM.

For c(FRGDLAFp(NMe)K) [L3], the “Endocytosis of Cy5.5-conjugated ligand” value in assay [1] is “already completed”.
